Results from patent EP1016409B1, “FREEZE DRIED COMPOSITION COMPRISING GLYCOSPHINGOLIPIDS” (KIRIN BEER KABUSHIKI KAISHA, priority 1997, dated 1998).

Key:
Format in all cases: physicochemical
[1] = Additives for improving re-solubility during storage, mannitol as excipient; conditions: lyophilized, KRN7000 200 µg/ml, Polysorbate 20 0.5%, 25°C
Description: First, Polysorbate 20 was dissolved in distilled water in a concentration of 0.5%, and mannitol and a variety of additives such concentrations as listed in Table 8. Next, 20 mg of the active component (KRN7000) was weighed and stirred in 100 ml of the solvents in a heated bath to 80°C for 20 minutes in order to form a solution. After cooling with running water, the mixture was filtered through a 0.22 µm filter, and transparent colorless glass vials having a volume of 5 ml were charged with a 1 ml portion of each of a variety of solutions thus obtained and subjected to lyophilization. Lyophilization was carried out under the condition of preliminary freezing at -40°C for 2 hours and drying at -20°C for 24 hours, 10°C for 12 hours, and finally at 25°C for 5 hours to give the lyophilized product. The degree of vacuum was set at 0.1 Torr or less during drying step.
After the lyophilization step, the lyophilized composition was stored at 25°C. After storage for 1 month, the lyophilized composition was reconstituted in 1 ml of distilled water for injection, left standing for 30 minutes, and solubility was judged when the foams generated on reconstitution disappeared. The samples judged in solution were further stored, and judged again of their solubility after 4 months.
The solubility was judged by cleaning the outside of the vial and placing it beneath the white light source in a darkroom for observation with naked eye at the position of a luminous intensity of about 5,000 lux. When the sample was clear with no precipitates, it was judged that the active component was dissolved.

[2] = Selection of a solvent for the active component: solubility judged by naked eye
Description: First, […] of the active component (KRN7000) was weighed and stirred in 100 ml of a variety of solvents (Table 3) in a heated bath to 80°C for 20 minutes in order to form a solution having a concentration of 10 µg/ml. With respect to the solvents which were judged to have successfully dissolved 10 µg/ml of the active component, dissolution was further tried in the same manner as above in order to form a solution having a concentration of 100 µg/ml. With respect to the solvents which were judged to have successfully dissolved 100 µg/ml of the active component, dissolution was further tried in the same manner as above in order to form a solution having a concentration of 200 µg/ml. After cooling with running water, the solubility of the component was judged.
The solubility of the component was judged by the test described below. First, transparent colorless glass vials having a volume of 5 ml were charged with about 1.5 ml portion of each sample and sealed up. The vial was cleaned outside and placed beneath the white light source in a darkroom for observation with naked eye at the position of a luminous intensity of about 5,000 lux. When the sample was clear with no precipitates, it was judged that the active component was dissolved.

[3] = Addition effects of sodium deoxycholate and histidine in the absence of a sugar; conditions: lyophilized, KRN7000 200 µg/ml, Polysorbate 20 0.5%, 1%, no sugar, 50°C
Description: Addition effects of sodium deoxycholate and histidine in the absence of a sugar as the excipient was examined.
First, Polysorbate 20 was dissolved in distilled water in a concentration of 0.5%, and histidine or sodium deoxycholate in a concentration of 1.0%. Next, 20 mg of the active component (KRN7000) was weighed and stirred in 100 ml of the solvents in a heated bath to 80°C for 20 minutes in order to form a solution. After cooling with running water, the mixture was filtered through a 0.22 µm filter, and transparent colorless glass vials having a volume of 5 ml were charged with a 1 ml portion of each of a variety of solutions thus obtained and subjected to lyophilization. Lyophilization was carried out under the condition of preliminary freezing at -40°C for 2 hours and drying at -20°C for 24 hours, 10°C for 12 hours, and finally at 25°C for 5 hours to give the lyophilized product. The degree of vacuum was set at 0.1 Torr or less during drying step.
After the lyophilization step, the lyophilized composition thus obtained was stored at 50°C. After storage for 3 days or 2 weeks, the lyophilized composition was reconstituted in 1 ml of distilled water for injection, left standing for 30 minutes, and solubility was judged when the foams generated on reconstitution disappeared. […]

Re-solubility after storage (by naked eye) ([1]; Mannitol 10%, Sodium deoxycholate, 1%, 1 month): - (- dissolved) | Re-solubility after storage (by naked eye) ([1]; Mannitol 10%, Sodium deoxycholate, 1%, 4 months): - (- dissolved) | Re-solubility after storage (by naked eye) ([1]; Mannitol 10%, no additive, 1 month): - (- dissolved) | Re-solubility after storage (by naked eye) ([1]; Mannitol 10%, no additive, 4 months): + (+ not dissolved (or deposited)) | Re-solubility after storage (by naked eye) ([1]; Mannitol 15%, Glycerol, 0.1%, 1 month): + (+ not dissolved (or deposited)) | Re-solubility after storage (by naked eye) ([1]; Mannitol 15%, Glycerol, 0.1%, 4 months): + (+ not dissolved (or deposited)) | Re-solubility after storage (by naked eye) ([1]; Mannitol 15%, Glycerol, 1%, 1 month): + (+ not dissolved (or deposited)) | Re-solubility after storage (by naked eye) ([1]; Mannitol 15%, Glycerol, 1%, 4 months): + (+ not dissolved (or deposited)) | Re-solubility after storage (by naked eye) ([1]; Mannitol 15%, PEG400, 1%, 1 month): + (+ not dissolved (or deposited)) | Re-solubility after storage (by naked eye) ([1]; Mannitol 15%, PEG400, 1%, 4 months): + (+ not dissolved (or deposited)) | Re-solubility after storage (by naked eye) ([1]; Mannitol 15%, Sodium deoxycholate, 1%, 1 month): + (+ not dissolved (or deposited)) | Re-solubility after storage (by naked eye) ([1]; Mannitol 15%, Sodium deoxycholate, 1%, 4 months): + (+ not dissolved (or deposited)) | Re-solubility after storage (by naked eye) ([1]; Mannitol 15%, no additive, 1 month): + (+ not dissolved (or deposited)) | Re-solubility after storage (by naked eye) ([1]; Mannitol 15%, no additive, 4 months): + (+ not dissolved (or deposited)) | Judgment of solubility (by naked eye) ([2]; solvent 0.5% Cremophor, KRN7000 10 µg/ml): + (+ not dissolved (or deposited)) | Judgment of solubility (by naked eye) ([2]; solvent 0.5% HCO 50, KRN7000 10 µg/ml): + (+ not dissolved (or deposited)) | Judgment of solubility (by naked eye) ([2]; solvent 0.5% HCO 60, KRN7000 10 µg/ml): + (+ not dissolved (or deposited)) | Judgment of solubility (by naked eye) ([2]; solvent 0.5% Polyoxamer 188, KRN7000 10 µg/ml): + (+ not dissolved (or deposited)) | Judgment of solubility (by naked eye) ([2]; solvent 0.5% Polysorbate 20, KRN7000 10 µg/ml): - (- dissolved) | Judgment of solubility (by naked eye) ([2]; solvent 0.5% Polysorbate 20, KRN7000 100 µg/ml): - (- dissolved) | Judgment of solubility (by naked eye) ([2]; solvent 0.5% Polysorbate 20, KRN7000 200 µg/ml): - (- dissolved) | Judgment of solubility (by naked eye) ([2]; solvent 0.5% Polysorbate 80, KRN7000 10 µg/ml): - (- dissolved) | Judgment of solubility (by naked eye) ([2]; solvent 0.5% Polysorbate 80, KRN7000 100 µg/ml): + (+ not dissolved (or deposited)) | Judgment of solubility (by naked eye) ([2]; solvent 1N HCl, KRN7000 10 µg/ml): + (+ not dissolved (or deposited)) | Judgment of solubility (by naked eye) ([2]; solvent 1N NaOH, KRN7000 10 µg/ml): + (+ not dissolved (or deposited)) | Judgment of solubility (by naked eye) ([2]; solvent Distilled water, KRN7000 10 µg/ml): + (+ not dissolved (or deposited)) | Judgment of solubility (by naked eye) ([2]; solvent Ethanol, KRN7000 10 µg/ml): - (- dissolved) | Judgment of solubility (by naked eye) ([2]; solvent Ethanol, KRN7000 100 µg/ml): - (- dissolved) | Judgment of solubility (by naked eye) ([2]; solvent Ethanol, KRN7000 200 µg/ml): - (- dissolved) | Judgment of solubility (by naked eye) ([2]; solvent Glycerol, KRN7000 10 µg/ml): - (- dissolved) | Judgment of solubility (by naked eye) ([2]; solvent Glycerol, KRN7000 100 µg/ml): + (+ not dissolved (or deposited)) | Judgment of solubility (by naked eye) ([2]; solvent Macrogol 400, KRN7000 10 µg/ml): - (- dissolved) | Judgment of solubility (by naked eye) ([2]; solvent Macrogol 400, KRN7000 100 µg/ml): + (+ not dissolved (or deposited)) | Judgment of solubility (by naked eye) ([2]; solvent Propylene glycol, KRN7000 10 µg/ml): - (- dissolved) | Judgment of solubility (by naked eye) ([2]; solvent Propylene glycol, KRN7000 100 µg/ml): + (+ not dissolved (or deposited)) | Re-solubility after storage (by naked eye) ([3]; Histidine, 2 weeks): + (+ not dissolved (or deposited)) | Re-solubility after storage (by naked eye) ([3]; Sodium deoxycholate, 3 days): + (+ not dissolved (or deposited))
Structure (SMILES): CCCCCCCCCCCCCCCCCCCCCCCCCC(=O)N[C@@H](CO[C@H]1O[C@H](CO)[C@H](O)[C@H](O)[C@H]1O)[C@H](O)[C@H](O)CCCCCCCCCCCCCC [KRN7000, (2S,3S,4R)-1-(α-D-galactopyranosyloxy)-2-hexacosanoylamino-3,4-octadecanediol]
